The subject of assay [1] is yeast. Description: yeast level on SDA medium after biocide contact (Comparative Example 3). It counts as cell-based. To be noted: 2 hours after contact, biocide concentration 50 ppm. An excerpt:
(§1) A comparison is done to show the effect of four different biocides on yeast level and bacteria level in various media and at various points relative to introduction of the biocide. SDA medium is synthetic defined agar, and PCA medium is plate count agar. Dow Antimicrobial™ 7287 is a composition containing 20 percent 2,2-dibromo-3-nitrilopropionamide (DBNPA), sold by The Dow Chemical Company.

In assay [2] the test system is bacteria. Kind of assay: bacteria level on PCA medium after biocide contact (Comparative Example 3). To be noted: PCT medium, 2 hours after contact; biocide concentration 50 ppm. It counts as cell-based.
Excerpt: as §1

Some results are limits rather than exact numbers.

On to Diethyl Carbamate, for which, in assay [1], the Yeast level is given as <1.0 × 10^4 cfu/ml. In addition, the Bacteria level in assay [2] is reported as 2.6 × 10^7 cfu/ml.

Source of the values: patent US20110027846A1, “CONTROL OF BACTERIA IN FERMENTATION PROCESSES” (priority 2007, published 2011).
